# In patent US20260272878A1, “ADAR1 INHIBITORS AND USES THEREOF” (THE WISTAR INSTITUTE OF ANATOMY AND BIOLOGY, priority 2023, published 2026):
# Experiments:
# ADAR1p110-WT = molecular target: T1, ADAR1p110-WT (Homo sapiens, UniProt P55265); assay: Biacore SPR binding to ADAR1p110-WT
# T1 construct: made in house; host or cells: Sf9 cells (baculovirus)
# T1 sequence (P55265 1-931 isoform P55265-5): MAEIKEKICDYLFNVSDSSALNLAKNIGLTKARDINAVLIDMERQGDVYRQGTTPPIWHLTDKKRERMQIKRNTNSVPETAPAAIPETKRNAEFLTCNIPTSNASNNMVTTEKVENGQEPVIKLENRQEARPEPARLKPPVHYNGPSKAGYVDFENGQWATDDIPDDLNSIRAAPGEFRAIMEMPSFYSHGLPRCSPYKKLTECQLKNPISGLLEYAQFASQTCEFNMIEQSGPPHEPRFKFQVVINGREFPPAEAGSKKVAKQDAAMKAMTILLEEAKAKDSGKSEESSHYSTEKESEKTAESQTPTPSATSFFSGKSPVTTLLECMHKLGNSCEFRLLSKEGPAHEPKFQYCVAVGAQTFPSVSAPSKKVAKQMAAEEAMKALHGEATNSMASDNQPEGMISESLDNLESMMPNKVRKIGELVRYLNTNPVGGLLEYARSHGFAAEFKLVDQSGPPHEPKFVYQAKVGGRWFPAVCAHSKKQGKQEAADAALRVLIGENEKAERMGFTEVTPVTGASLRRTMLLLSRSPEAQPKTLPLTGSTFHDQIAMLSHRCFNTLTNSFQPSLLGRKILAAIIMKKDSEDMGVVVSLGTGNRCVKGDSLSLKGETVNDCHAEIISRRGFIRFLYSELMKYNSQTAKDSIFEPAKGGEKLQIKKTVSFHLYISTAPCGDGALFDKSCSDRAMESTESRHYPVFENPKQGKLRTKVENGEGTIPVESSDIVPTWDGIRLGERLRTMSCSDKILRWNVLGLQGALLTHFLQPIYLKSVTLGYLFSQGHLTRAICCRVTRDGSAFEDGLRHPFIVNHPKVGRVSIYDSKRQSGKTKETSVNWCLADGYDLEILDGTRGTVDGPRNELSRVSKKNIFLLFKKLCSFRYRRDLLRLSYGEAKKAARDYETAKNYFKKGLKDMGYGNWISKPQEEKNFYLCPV
# Text: FIGS. 5A-5D show Biacore SPR analysis for binding of ADAR1i to ADAR1p110. (FIG. 5A) SPR analysis for binding kinetics of 8 compounds to ADAR1p110-WT. ADAR1 inhibition positive (ADAR1i-13, ADAR1i-120, ADAR1i-124) and negative compounds. (FIG. 5B, FIG. 5C) […] of SPR analysis for binding of ADAR1i-13 and ADAR1i-124 to ADAR1p110-WT and ADAR1p110-E912A as well as negative control proteins, GAPDH and HuR, are shown. […] ADAR1-E912, equivalent of ADAR2 E396, is located in the catalytic center.
# No complete 3-D structure of ADAR1 is currently available. […] The glutamate E912 and E396 in ADAR1 and ADAR2, respectively, plays an important proton transfer function during hydrolytic deamination reaction (42, 43).
# ADAR = ADAR (Homo sapiens, UniProt P55265); conditions: literature study; cited from earlier work
# HeLa-Nluc-edit cells = assay: First screen: FFL activity (cell viability/apoptosis) in reporter HeLa cells; conditions: FIG. 2C
# ADAR, sequence (P55265 whole entry, species assumed): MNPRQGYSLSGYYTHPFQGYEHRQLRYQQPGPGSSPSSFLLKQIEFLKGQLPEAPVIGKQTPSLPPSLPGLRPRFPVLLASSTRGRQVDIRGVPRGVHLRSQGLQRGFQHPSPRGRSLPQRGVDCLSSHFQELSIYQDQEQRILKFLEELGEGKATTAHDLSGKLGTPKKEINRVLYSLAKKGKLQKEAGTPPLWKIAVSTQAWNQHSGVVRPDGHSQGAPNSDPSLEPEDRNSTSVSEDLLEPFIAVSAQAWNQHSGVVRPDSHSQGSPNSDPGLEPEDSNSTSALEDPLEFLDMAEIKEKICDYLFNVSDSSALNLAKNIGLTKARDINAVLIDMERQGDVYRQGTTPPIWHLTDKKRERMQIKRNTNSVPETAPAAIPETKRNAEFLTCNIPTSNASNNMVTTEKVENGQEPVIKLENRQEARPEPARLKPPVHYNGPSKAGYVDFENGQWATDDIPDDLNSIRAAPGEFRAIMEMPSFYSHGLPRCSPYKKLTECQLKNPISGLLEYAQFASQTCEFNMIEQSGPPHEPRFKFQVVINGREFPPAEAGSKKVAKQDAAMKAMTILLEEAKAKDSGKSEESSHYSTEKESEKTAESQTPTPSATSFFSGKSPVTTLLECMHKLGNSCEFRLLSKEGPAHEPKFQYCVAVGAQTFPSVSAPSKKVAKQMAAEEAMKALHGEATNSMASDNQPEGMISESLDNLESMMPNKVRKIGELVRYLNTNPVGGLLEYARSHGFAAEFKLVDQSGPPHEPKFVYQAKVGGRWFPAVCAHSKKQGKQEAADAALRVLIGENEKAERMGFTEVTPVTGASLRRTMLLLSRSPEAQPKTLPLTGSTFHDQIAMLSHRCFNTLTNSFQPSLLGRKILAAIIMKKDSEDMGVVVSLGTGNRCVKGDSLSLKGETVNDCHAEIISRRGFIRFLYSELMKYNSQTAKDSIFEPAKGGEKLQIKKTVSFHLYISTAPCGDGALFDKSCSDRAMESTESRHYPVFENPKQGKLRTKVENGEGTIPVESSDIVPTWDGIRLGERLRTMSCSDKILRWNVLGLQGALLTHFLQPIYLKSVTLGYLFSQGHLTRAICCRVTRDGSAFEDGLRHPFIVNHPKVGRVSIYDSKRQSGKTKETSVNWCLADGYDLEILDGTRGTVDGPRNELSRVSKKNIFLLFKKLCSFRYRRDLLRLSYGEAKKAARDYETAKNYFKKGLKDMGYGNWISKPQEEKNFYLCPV
Binding to ADAR1p110-WT (ADAR1p110-WT),SMILES,other results
did not bind,N#Cc1ccc(NC(=O)c2nc3c(N)ncnc3[nH]2)cc1 [ADAR1i-123],
did not bind,N#Cc1ccc(NC(=O)c2nc3ccccc3[nH]2)cc1 [ADAR1i-122],
did not bind,N#Cc1ccc(NC(=O)c2[nH]c3ccccc3c2Cl)cc1 [ADAR1i-126],
did not bind,N#Cc1ccc(NC(=O)c2cc3ccccc3s2)cc1 [ADAR1i-125],

# Continued, molecule first:
SMILES,Binding to ADAR1p110-WT (ADAR1p110-WT),other results
Nc1ncnc2c1nnn2[C@@H]1O[C@H](CO)[C@@H](O)[C@H]1O [8-azaadenosine],,ADAR inhibition (ADAR): not ADAR inhibitors
Nc1ncnc2c1nc(Cl)n2[C@@H]1O[C@H](CO)[C@@H](O)[C@H]1O [8-chloroadenosine],,ADAR inhibition (ADAR): not ADAR inhibitors
COc1cccc2c1C(=O)c1c(O)c3c(c(O)c1C2=O)C[C@@](O)(C(=O)CO)C[C@@H]3O[C@H]1C[C@H](N)[C@H](O)[C@H](C)O1 [Doxorubicin],,Acute apoptosis detected by reduction of FFL activity (HeLa-Nluc-edit cells): induces acute apoptosis
